This passage reports IC50 and IC90 results from PubChem BioAssay AID504703 (Southern Research Specialized Biocontainment Screening …, 2011).

“And” between values parts separate entries of the source, which are not always exact repeats. Identical values can stand only once. The source made the active and inactive calls. No rule for the calls is given here. A value given as a limit tells only on which side of the number the result lay.

The subject of the test is M. tuberculosis H37Rv growth inhibition with meropenem. The test can be described thus: M. tuberculosis growth inhibition, H37Rv, set 2, dose response (AID 504703).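 Also: growth ran 7 days at 37 °C then overnight with Alamar Blue before reading.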
[1] abbreviates: M. tuberculosis H37Rv growth inhibition, measured here: IC50 without meropenem.
Setting [2] is: M. tuberculosis H37Rv growth inhibition, measured here: IC90 without meropenem.
Setting [3] is: measured here: IC90 with meropenem.

For the compound `CC(=O)c1c(C)n(-c2ccccc2)c2ccccc12`, the IC50 was 11.6 µM (inactive). Under setting [1], the half-maximal inhibitory concentration (IC50) was more than 25 µM. The compound also yielded an IC90 under setting [2] of more than 25 µM. Further, the IC90 under setting [3] is more than 25 µM.

`Cc1onc(-c2c(Cl)cccc2Cl)c1/C(N)=N/OC(=O)C1CC1` displayed an IC50 under setting [1] of 14.7 µM. In addition, the IC90 reads like this: under setting [2], more than 25 µM; under setting [3], more than 25 µM.

As to `COc1ccc2oc(C(=O)Nc3nc4ccccc4[nH]3)c(C)c2c1`, the IC50 is 10.5 µM (inactive). The compound further displayed an IC90 under setting [2] of more than 25 µM. Also, under setting [3], the IC90 was more than 25 µM.

`O=C(Cc1csc(-c2ccccc2F)n1)Nc1nc2ccccc2[nH]1` had an IC50 under setting [1] of more than 25 µM. In addition, the IC90 under setting [2] was more than 25 µM.

On to `Cc1cc2cc(Cl)ccc2n1-c1ccccc1`, for which the IC50 under setting [1] is more than 25 µM. The same compound returned an IC90 under setting [2] of more than 25 µM.

In the case of `Cc1ccccc1OCC(=O)Nc1ncccn1`, the half-inhibitory concentration (IC50) under setting [1] is more than 25 µM. Under setting [2], this compound showed a concentration for an effect of 90% (IC90) of more than 25 µM.

Under setting [1], `CC(Oc1ccccc1)C(=O)Nc1nc2ccc(S(C)(=O)=O)cc2s1` (configuration not stated) had an IC50 of more than 25 µM. The concentration for an effect of 90% (IC90) under setting [2] is more than 25 µM.

Turning to `CCc1ccc2nc(/N=C(\N)NC(=O)c3ccccc3)nc(C)c2c1`, the IC50 was 0.82 µM (inactive). Moreover, the IC50 under setting [1] is 1.86 µM. Further, the IC90 under setting [2] is more than 12.5 µM. Further, under setting [3], the IC90 was more than 25 µM.

`Cc1c(OCc2ccc(C(=O)O)cc2)ccc2c(-c3ccccc3)cc(=O)oc12` returned an IC50 under setting [1] of more than 25 µM. Also, the 90% effect concentration (IC90) is more than 25 µM under setting [2] and more than 25 µM under setting [3].

Under setting [1], `CCOc1ccc2nc(NC(=O)COc3ccccc3)sc2c1` returned a 50% inhibitory concentration (IC50) of more than 25 µM. Under setting [2], this compound came in with an IC90 of more than 25 µM.

As for `O=C(CSc1n[nH]c(=O)n1C1CC1)c1ccc2c(c1)OCCO2`, the IC50 was 4.57 µM (inactive). The IC50 under setting [1] was found to be 10.8 µM. The IC90 under setting [2] was more than 25 µM. The same compound yielded a 90% effect concentration (IC90) under setting [3] of more than 25 µM.

In turn, `COc1ccc2nc(NC(=O)COc3c(C)cc(C)cc3C)sc2c1` had an IC50 under setting [1] of more than 25 µM. Besides, the IC90 under setting [2] was more than 25 µM.

As to `O=C(COC(=O)C1CC1)c1c[nH]c2ccccc12`, the IC50 under setting [1] is 1.15 µM and 2.08 µM. Further, the IC90 is more than 6.25 µM under setting [2] and more than 25 µM under setting [3].

Under setting [1], `Cc1cccc(C)c1OCC(=O)Nc1nc2ccc(Cl)cc2s1` had an IC50 of more than 25 µM. The same compound came in with a 90% effect concentration (IC90) under setting [2] of more than 25 µM.

In turn, `Cc1ccc(OCC(=O)Nc2nnn(C)n2)c(C)c1` gave a concentration for half-maximal inhibition (IC50) under setting [1] of more than 25 µM. Moreover, under setting [2], the 90% effect concentration (IC90) is more than 25 µM.

The compound `CCOc1ccc2c(ccn2-c2ccccc2)c1` showed an IC50 under setting [1] of more than 25 µM. The IC90 under setting [2] was more than 25 µM.

For the compound `O=C(COc1cccc2ccccc12)Nc1nc2ccccc2s1`, the IC50 under setting [1] is more than 25 µM. Moreover, the IC90 under setting [2] is more than 25 µM.

`CC(=O)c1c(C)n(-c2cccc(Cl)c2)c2ccc(O)cc12` returned a 50% inhibitory concentration (IC50) under setting [1] of more than 25 µM. This compound gave a concentration for an effect of 90% (IC90) under setting [2] of more than 25 µM.

As for `COc1ccc2nc(NC(=O)c3oc4ccccc4c3C)sc2c1`, the half-inhibitory concentration (IC50) under setting [1] is more than 25 µM. The same compound showed an IC90 under setting [2] of more than 25 µM.

For the compound `CCCN1CC(O)=C(c2nc3ccccc3s2)C1=N`, the IC50 under setting [1] was more than 25 µM. Also, the IC90 under setting [2] is more than 25 µM.

Regarding `Cc1ccc(OCC(=O)Nc2nc3ccc(F)cc3s2)cc1`, under setting [1], the IC50 is more than 25 µM. The IC90 under setting [2] is more than 25 µM.

In general, IC50 refers to the midpoint of a concentration-inhibition curve. As usually defined, the IC90 is the concentration at which the effect reaches the 90% level.
